Each structure is given as a SMILES string. Residues, ends and D or L forms follow the SMILES beside them. *: point of attachment. 5FAM = O=C1OC2(c3ccc(O)cc3Oc3cc(O)ccc32)c2ccc(C(=O)*)cc21; Ahx = NCCCCCC(=O)O

From patent US20150268247A1, “Assay for Screening of Anti-Viral Compounds That Inhibit Specific Interaction Interfaces Between Cullin5 and an ElonginB/ElonginC/ CBF-beta/HIV-1 Vif Complex” (UNIVERSITY OF ROCHESTER, priority 2012, published 2015) come the findings set out here.

For this assay, the target named is T1, Vif/EloB/C/CBFβ (UniProt P69723+Q15369).
T1 construct: Vif in the context of the Vif/EloB/C/CBFβ is full-length Vif (amino acids 1-192); co-expressing EloB1-118 and EloC17-112 from MCS1 and MCS2, respectively, from a pETDuet-1 vector (pEloBC); made in house; host or cells: E. coli BL21(DE3)
Kind of assay: Fluorescence anisotropy of 5-FAM Cul5 peptides with Vif/EloB/C/CBFβ. It is filed as binding, HIV-1 Vif; human EloB/C/CBFβ. An excerpt:
The dissociation constant (KD) for each interaction is provided.
For orientation: In fluorescence polarisation assays a small probe gives low polarisation when free and higher when bound to something large.

With `CC(C)C[C@H](NC(=O)CCCCCNC(=O)c1ccc2c(c1)C(=O)OC21c2ccc(O)cc2Oc2cc(O)ccc21)C(=O)N[C@@H](CCCNC(=N)N)C(=O)N[C@@H](CCC(N)=O)C(=O)N[C@@H](CCC(=O)O)C(=O)N[C@@H](CO)C(=O)N[C@H](C(=O)N[C@H](C(=O)N[C@@H](CCCCN)C(=O)N[C@@H](CCC(N)=O)C(=O)N[C@@H](CCC(N)=O)C(=O)N[C@@H](Cc1c[nH]c2ccccc12)C(=O)O)[C@@H](C)O)C(C)C` [Cul5(30-40)] ({5FAM-Ahx}-LRQESVTKQQW-OH), binding was characterised by a dissociation constant (Kd) of 16 µM.

In turn, `CC(C)C[C@H](NC(=O)[C@H](CS)NC(=O)[C@@H](NC(=O)[C@H](C)NC(=O)[C@H](Cc1c[nH]cn1)NC(=O)[C@@H](NC(=O)[C@H](CC(=O)O)NC(=O)[C@H](CO)NC(=O)[C@H](Cc1ccccc1)NC(=O)[C@H](CC(C)C)NC(=O)[C@H](CC(=O)O)NC(=O)[C@H](Cc1ccccc1)NC(=O)[C@H](Cc1c[nH]c2ccccc12)NC(=O)[C@H](CCC(N)=O)NC(=O)[C@H](CCC(N)=O)NC(=O)[C@H](CCCCN)NC(=O)CCCCCNC(=O)c1ccc2c(c1)C(=O)OC21c2ccc(O)cc2Oc2cc(O)ccc21)C(C)C)C(C)C)C(=O)N[C@@H](Cc1c[nH]c2ccccc12)C(=O)O` [Cul5(37-53)] ({5FAM-Ahx}-KQQWFDLFSDVHAVCLW-OH) showed a Kd of 1.2 µM.

On to `CC(C)C[C@H](NC(=O)CCCCCNC(=O)c1ccc2c(c1)C(=O)OC21c2ccc(O)cc2Oc2cc(O)ccc21)C(=O)N[C@@H](Cc1ccccc1)C(=O)N[C@@H](CO)C(=O)N[C@@H](CC(=O)O)C(=O)N[C@H](C(=O)N[C@@H](Cc1c[nH]cn1)C(=O)N[C@@H](C)C(=O)N[C@H](C(=O)N[C@@H](CS)C(=O)N[C@@H](CC(C)C)C(=O)N[C@@H](Cc1c[nH]c2ccccc12)C(=O)N[C@@H](CC(=O)O)C(=O)O)C(C)C)C(C)C` [Cul5(43-54)], for which the Kd was found to be 2.5 µM.

Turning to `CC[C@H](C)[C@H](NC(=O)[C@H](CCCCN)NC(=O)[C@H](C)NC(=O)[C@@H]1CCCN1C(=O)CNC(=O)[C@H](CCCCN)NC(=O)[C@H](CC(=O)O)NC(=O)[C@H](CC(=O)O)NC(=O)[C@H](Cc1c[nH]c2ccccc12)NC(=O)[C@H](CC(C)C)NC(=O)[C@H](CS)NC(=O)[C@@H](NC(=O)[C@H](C)NC(=O)[C@H](Cc1c[nH]cn1)NC(=O)[C@@H](NC(=O)[C@H](CC(=O)O)NC(=O)[C@H](CO)NC(=O)[C@H](Cc1ccccc1)NC(=O)[C@H](CC(C)C)NC(=O)CCCCCNC(=O)c1ccc2c(c1)C(=O)OC21c2ccc(O)cc2Oc2cc(O)ccc21)C(C)C)C(C)C)C(=O)N[C@@H](Cc1c[nH]cn1)C(=O)N[C@@H](CCC(N)=O)C(=O)N[C@@H](C)C(=O)N[C@@H](CC(C)C)C(=O)O` [Cul5(43-65)], the dissociation constant Kd came out at 4.7 µM.

By Kd is commonly meant the free concentration of one partner at which half of the binding sites on the other are occupied at equilibrium, for simple one-to-one binding. High values mean weaker binding, low ones tighter binding.
